# How the values were obtained:
# Type in all cases: cell-based
# K562 = assay: MTT assay, K562 cells; conditions: Homo sapiens, 24 h, MTT, read-out: Viability rate
# Procedure: K562, Jurkat and Molt-4 cell lines were seeded as 4x10^5/ml, Reh and Nalm-6 cell lines were seeded 5x10^5/ml, Hek293T cell line was seed as 2x10^5/ml.
# MTT assay is a 3-day test. On the first day, cell count was performed in Bio Rad TC-20 device with the help of trypan blue, each cell line was prepared by diluting to the specified concentrations and seeded in a 96-well plate as 100μL to each well and incubated for 1 day.
# On the second day, stock solutions were subsequently diluted to various concentrations (0.3–200 μM) with related medium prior to experiments. Specified concentrations of the compounds were seeded in a 96-well plate as 100μL to each well and incubated for 24 h.
# After incubation (on the third day), to precipitate leukemia cells, the cell plate was centrifuged at 1500 rpm for 5 min. […] The 50 μl of supernatant was discarded from each well and 100 μl of DMSO was added to dissolve the formazan. Plates were shaken for 45 min to dissolve the dye. Then the optical density of each well was measured by using Thermo VarioSkan Flush Multimode Reader Quantum ST5-1100 at 570 nm wavelength.
# Subsequently, viability rate of the cells at each concentration, as percentage, was determined by following formula (1):
# Viability rate (%)=100-[(OD(control)-OD(sample))/OD(control)×100].OD=Optical Density
# The IC50 values were calculated by using GraphPad Prism. All the data presented as the mean of 6 replicates. […] Statistical analysis was performed using dose-response inhibition, log(inhibitor) vs response-variable slope, least squares (ordinary) fit.
# Nalm-6 = assay: MTT assay, Nalm-6 cells; conditions: Homo sapiens, 24 h, MTT, read-out: Viability rate
# Molt-4 = assay: MTT assay, Molt-4 cells; conditions: Homo sapiens, MOLT-4, 24 h, read-out: Viability rate
# Reh = assay: MTT assay, Reh cells; conditions: Homo sapiens, 24 h, read-out: Viability rate
# Jurkat = assay: MTT assay, Jurkat cells; conditions: Homo sapiens, 24 h, read-out: Viability rate
# [1] = MTT assay, Hek293T non-leukemic control cells; conditions: human, Hek293T cells (non-leukemic control cell line), read-out: Viability rate
# [2] = test system: K562, Nalm-6, Molt-4, Reh, Jurkat, Hek293T cell lines; assay: MTT assay, overall judgement over all cell lines; conditions: overall judgement in words; for 6 and 10: on all cell lines, except Reh
# Summary of the method: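 MTT viability assay run across a range of compound concentrations in leukemic lines, BCR-ABL positive K562 and BCR-ABL negative Nalm-6, Molt-4, Reh, Jurkat, plus non-leukemic Hek293T. Viability rate calculated per concentration.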
structure (smiles),measurement,setting,value
"Cc1ccnc(Nc2cc(NC(=O)c3ccc(CN4CCN(c5ncccn5)CC4)cc3)ccc2C)n1 [Compound 5, N-(4-Methyl-3-((4-methylpyrimidin-2-yl)amino)phenyl)-4-((4-(pyrimidin-2-yl)piperazin-1-yl)methyl)benzamide]",viability at 1 µM,"K562; K562, 1 μM",103.1 ± 0.07%
same,viability at 3 µM,"K562; K562, 3 μM",98.7 ± 0.08%
same,viability at 5 µM,"K562; K562, 5 μM",99.7 ± 0.06%
same,viability at 10 µM,"K562; K562, 10 μM",97 ± 0.05%
same,viability at 15 µM,"K562; K562, 15 μM",99.5 ± 0.12%
same,viability at 20 µM,"K562; K562, 20 μM",106.5 ± 0.04%
same,viability at 30 µM,"K562; K562, 30 μM",102.7 ± 0.05%
same,viability at 50 µM,"K562; K562, 50 μM",101.6 ± 0.12%
same,viability at 70 µM,"K562; K562, 70 μM",100.1 ± 0.08%
same,viability at 100 µM,"K562; K562, 100 μM",104.6 ± 0.1%
same,viability at 150 µM,"K562; K562, 150 μM",104.3 ± 0.1%
same,viability at 200 µM,"K562; K562, 200 μM",102.1 ± 0.14%
same,viability at 1 µM,"Nalm-6; Nalm-6, 1 μM",95.8 ± 0.01%
same,viability at 3 µM,"Nalm-6; Nalm-6, 3 μM",95 ± 0.02%
same,viability at 5 µM,"Nalm-6; Nalm-6, 5 μM",92.4 ± 0.03%
same,viability at 10 µM,"Nalm-6; Nalm-6, 10 μM",90.1 ± 0.02%
same,viability at 15 µM,"Nalm-6; Nalm-6, 15 μM",84.1 ± 0.01%
same,viability at 20 µM,"Nalm-6; Nalm-6, 20 μM",80.1 ± 0.02%
same,viability at 30 µM,"Nalm-6; Nalm-6, 30 μM",78.6 ± 0.01%
same,viability at 50 µM,"Nalm-6; Nalm-6, 50 μM",74.1 ± 0.01%
same,viability at 70 µM,"Nalm-6; Nalm-6, 70 μM",71.9 ± 0.01%
same,viability at 100 µM,"Nalm-6; Nalm-6, 100 μM",70.3 ± 0.01%
same,viability at 150 µM,"Nalm-6; Nalm-6, 150 μM",70.2 ± 0.01%
same,viability at 200 µM,"Nalm-6; Nalm-6, 200 μM",70.5 ± 0.01%
same,viability at 1 µM,"Molt-4; Molt-4, 1 μM",95.2 ± 0.08%
same,viability at 3 µM,"Molt-4; Molt-4, 3 μM",84.6 ± 0.04%
same,viability at 5 µM,"Molt-4; Molt-4, 5 μM",85.1 ± 0.11%
same,viability at 10 µM,"Molt-4; Molt-4, 10 μM",84.8 ± 0.03%
same,viability at 15 µM,"Molt-4; Molt-4, 15 μM",84.9 ± 0.11%
same,viability at 20 µM,"Molt-4; Molt-4, 20 μM",85.8 ± 0.03%
same,viability at 30 µM,"Molt-4; Molt-4, 30 μM",85.3 ± 0.06%
same,viability at 50 µM,"Molt-4; Molt-4, 50 μM",86.1 ± 0.11%
same,viability at 70 µM,"Molt-4; Molt-4, 70 μM",84.6 ± 0.05%
same,viability at 100 µM,"Molt-4; Molt-4, 100 μM",83.5 ± 0.12%
same,viability at 150 µM,"Molt-4; Molt-4, 150 μM",87.1 ± 0.09%
same,viability at 200 µM,"Molt-4; Molt-4, 200 μM",86.6 ± 0.08%
same,viability at 1 µM,Reh; 1 μM,96.6 ± 0.01%
same,viability at 3 µM,Reh; 3 μM,95.8 ± 0.05%
same,viability at 5 µM,Reh; 5 μM,95.7 ± 0.03%
same,viability at 10 µM,Reh; 10 μM,95.1 ± 0.04%
same,viability at 15 µM,Reh; 15 μM,94.9 ± 0.04%
same,viability at 20 µM,Reh; 20 μM,90.2 ± 0.03%
same,viability at 30 µM,Reh; 30 μM,87.9 ± 0.04%
same,viability at 50 µM,Reh; 50 μM,85.5 ± 0.05%
same,viability at 70 µM,Reh; 70 μM,81.4 ± 0.01%
same,viability at 100 µM,Reh; 100 μM,79.1 ± 0.01%
same,viability at 150 µM,Reh; 150 μM,79.1 ± 0.02%
same,viability at 200 µM,Reh; 200 μM,74%
same,viability at 3 µM,Jurkat; 3 μM,90.1 ± 0.11%
same,viability at 5 µM,Jurkat; 5 μM,89.7 ± 0.09%
same,viability at 10 µM,Jurkat; 10 μM,89.6 ± 0.15%
same,viability at 15 µM,Jurkat; 15 μM,88.8 ± 0.09%
same,viability at 20 µM,Jurkat; 20 μM,88.8 ± 0.08%
same,viability at 30 µM,Jurkat; 30 μM,88.1 ± 0.1%
same,viability at 50 µM,Jurkat; 50 μM,83.4 ± 0.12%
same,viability at 70 µM,Jurkat; 70 μM,82.5 ± 0.07%
same,viability at 100 µM,Jurkat; 100 μM,80.8 ± 0.13%
same,viability at 150 µM,Jurkat; 150 μM,78.7 ± 0.12%
same,viability at 200 µM,Jurkat; 200 μM,66.5 ± 0.05%
same,"viability at 24 h, 3 µM",[1]; 3 μM,66.5 ± 0.11%
same,"viability at 24 h, 5 µM",[1]; 5 μM,61 ± 0.13%
same,"viability at 24 h, 10 µM",[1]; 10 μM,59.4 ± 0.08%
same,"viability at 24 h, 15 µM",[1]; 15 μM,56.6 ± 0.1%
same,"viability at 24 h, 20 µM",[1]; 20 μM,56.2 ± 0.03%
same,"viability at 24 h, 30 µM",[1]; 30 μM,55.8 ± 0.05%
same,"viability at 24 h, 50 µM",[1]; 50 μM,54.1 ± 0.04%
same,"viability at 24 h, 70 µM",[1]; 70 μM,52.7 ± 0.03%
same,"viability at 24 h, 100 µM",[1]; 100 μM,50.5 ± 0.02%
same,"viability at 24 h, 150 µM",[1]; 150 μM,50.4 ± 0.02%
same,"viability at 24 h, 200 µM",[1]; 200 μM,50 ± 0.04%
same,anticancer activity according to MTT assay results,[2],very poor activity
